ChEMBL document CHEMBL5500389, “Discovery of the Selective and Orally Available Galectin-1 Inhibitor GB1908 as a Potential Treatment for Lung Cancer” (J Med Chem, 2024)
Active and inactive are the calls of the source. The rule behind the calls is not given here.

Legend:
[1] = physchem; details: octanol/potassium phosphate buffer, pH 7.4
[2] = target: T1, Galectin-1 (Homo sapiens, UniProt P09382); assay: Binding affinity to human galectin-1 assessed as dissociation constant by fluorescein probe based fluorescence polarization assay
T1 sequence (P09382 whole entry): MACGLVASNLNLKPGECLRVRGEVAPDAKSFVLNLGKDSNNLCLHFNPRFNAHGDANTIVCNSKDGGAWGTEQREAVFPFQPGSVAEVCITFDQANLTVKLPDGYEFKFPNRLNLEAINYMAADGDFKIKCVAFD

[3] = Apparent permeability across basal to apical side in human Caco-2 cells at 10 uM incubated for 90 mins by LC-MS/MS analysis
[4] = Apparent permeability across apical to basal side in human Caco-2 cells at 10 uM incubated for 90 mins by LC-MS/MS analysis
[5] = Efflux ratio of apparent permeability across apical to basal side over basal to apical side in human Caco-2 cells at 10 uM incubated for 90 mins by LC-MS/MS analysis
[6] = Stability in mouse hepatocytes assessed as hepatic intrinsic clearance at 2 uM measured per million cells for 15 to 120 mins by LC-MS/MS analysis; format: ADME, cell-based, Hepatocyte; details: time 15-120 min, read-out: CLH
[7] = Unbound fraction in human plasma at 1 uM incubated for 5 hrs by equilibrium dialysis method; format: ADME, cell-free
[8] = target: T2, Galectin-1 (Mus musculus, UniProt P16045); assay: Binding affinity to mouse galectin-1 assessed as dissociation constant by fluorescein probe based fluorescence polarization assay
T2 sequence (P16045 whole entry): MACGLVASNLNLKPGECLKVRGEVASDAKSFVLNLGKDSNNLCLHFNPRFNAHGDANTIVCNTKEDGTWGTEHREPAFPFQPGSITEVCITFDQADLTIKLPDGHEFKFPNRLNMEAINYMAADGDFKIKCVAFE

[9] = Stability in human hepatocytes assessed as hepatic intrinsic clearance at 2 uM measured per million cells for 15 to 120 mins by LC-MS/MS analysis; format: ADME, cell-based, Hepatocyte; details: time 15-120 min, read-out: CLH
[10] = target: T3, Galectin-3 (Homo sapiens, UniProt P17931); assay: Inhibition of human galectin-3 by competitive fluorescence polarization assay
T3 sequence (P17931 whole entry): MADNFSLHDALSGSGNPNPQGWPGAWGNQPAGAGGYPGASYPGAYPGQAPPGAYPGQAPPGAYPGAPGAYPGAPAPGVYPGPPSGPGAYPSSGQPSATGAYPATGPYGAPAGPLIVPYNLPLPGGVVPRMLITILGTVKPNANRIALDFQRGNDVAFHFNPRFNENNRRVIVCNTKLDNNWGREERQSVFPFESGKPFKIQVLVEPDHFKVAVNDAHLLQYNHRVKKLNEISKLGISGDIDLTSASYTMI

[11] = tested on: Lewis lung carcinoma; assay: Antitumor activity against mouse LL2 cells allografted in syngeneic mouse C57BL/6N assessed as reduction in tumor volume at 30 mg/kg, po bid administered via gavage measured after 10 days; format: functional, organism-based; details: time 10.0 day
[12] = Cmax in C57BL/6 mouse at 30 mg/kg, po measured for 24 hrs by HPLC analysis; format: ADME, organism-based; details: in vivo
[13] = target: T4, Galectin-9 (Homo sapiens, UniProt O00182); assay: Inhibition of N-terminal human galectin-9 by competitive fluorescence polarization assay
T4 sequence (O00182 whole entry): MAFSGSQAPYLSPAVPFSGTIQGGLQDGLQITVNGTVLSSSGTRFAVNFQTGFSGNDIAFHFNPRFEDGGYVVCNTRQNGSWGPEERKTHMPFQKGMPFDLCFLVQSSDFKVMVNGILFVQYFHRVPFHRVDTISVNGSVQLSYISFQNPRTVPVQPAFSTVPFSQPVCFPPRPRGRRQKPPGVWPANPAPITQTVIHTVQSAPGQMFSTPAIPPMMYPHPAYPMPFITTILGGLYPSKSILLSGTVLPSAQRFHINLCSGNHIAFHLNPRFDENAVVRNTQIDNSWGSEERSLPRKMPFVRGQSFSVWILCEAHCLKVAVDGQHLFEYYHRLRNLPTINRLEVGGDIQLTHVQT

[14] = AUC (infinity) in C57BL/6 mouse at 30 mg/kg, po measured for 24 hrs by HPLC analysis; format: ADME, organism-based; details: in vivo
[15] = target: T4, Galectin-9; assay: Inhibition of C-terminal human galectin-9 by competitive fluorescence polarization assay
[16] = Oral bioavailability in C57BL/6 mouse at 30 mg/kg measured for 24 hrs by HPLC analysis; format: ADME, organism-based; details: in vivo
[17] = Unbound fraction in mouse plasma at 1 uM incubated for 5 hrs by equilibrium dialysis method; format: ADME, cell-free
[18] = tested on: Jurkat; assay: Inhibition of apoptosis in galectin-3-induced human Jurkat cells measured after 16 hrs by caspase-3/7 green fluorescence based analysis
[19] = Volume of distribution at steady state in C57BL/6 mouse at 1 mg/kg, iv measured for 24 hrs by HPLC analysis; format: ADME, organism-based; details: in vivo, read-out: Vdss
[20] = Tmax in C57BL/6 mouse at 30 mg/kg, po measured for 24 hrs by HPLC analysis; format: ADME, organism-based; details: in vivo
[21] = target: T5, Galectin-8 (Homo sapiens, UniProt O00214); assay: Inhibition of N-terminal human galectin-8 by competitive fluorescence polarization assay
T5 sequence (O00214 whole entry): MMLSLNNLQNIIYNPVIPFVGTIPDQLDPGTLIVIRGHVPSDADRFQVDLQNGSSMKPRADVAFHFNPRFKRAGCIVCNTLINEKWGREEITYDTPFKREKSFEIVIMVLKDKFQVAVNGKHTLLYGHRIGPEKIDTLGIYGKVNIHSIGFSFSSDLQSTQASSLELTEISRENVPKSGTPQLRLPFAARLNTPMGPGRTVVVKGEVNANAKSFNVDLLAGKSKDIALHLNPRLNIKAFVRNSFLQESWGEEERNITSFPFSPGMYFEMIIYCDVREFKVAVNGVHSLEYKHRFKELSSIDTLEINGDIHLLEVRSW

[22] = Clearance in C57BL/6 mouse at 1 mg/kg, iv measured for 24 hrs by HPLC analysis; format: ADME, organism-based; details: in vivo
[23] = target: T3, Galectin-3; assay: Binding affinity to CM3 chip-immobilized full-length human galectin-3 assessed as dissociation constant by SPR analysis
[24] = target: T5, Galectin-8; assay: Inhibition of C-terminal human galectin-8 by competitive fluorescence polarization assay
[25] = tested on: Jurkat; assay: Inhibition of apoptosis in galectin-1-induced human Jurkat cells measured after 16 hrs by caspase-3/7 green fluorescence based analysis
[26] = tested on: Lewis lung carcinoma; assay: Antitumor activity against mouse LL2 cells allografted in syngeneic mouse C57BL/6N assessed as inhibition of tumor growth at 30 mg/kg, po bid administered via gavage measured for 3 to 21 days; format: functional, organism-based; details: time 3-21 day
[27] = target: T6, Galectin-4 (Homo sapiens, UniProt P56470); assay: Inhibition of N-terminal human galectin-4 by competitive fluorescence polarization assay
T6 sequence (P56470 whole entry): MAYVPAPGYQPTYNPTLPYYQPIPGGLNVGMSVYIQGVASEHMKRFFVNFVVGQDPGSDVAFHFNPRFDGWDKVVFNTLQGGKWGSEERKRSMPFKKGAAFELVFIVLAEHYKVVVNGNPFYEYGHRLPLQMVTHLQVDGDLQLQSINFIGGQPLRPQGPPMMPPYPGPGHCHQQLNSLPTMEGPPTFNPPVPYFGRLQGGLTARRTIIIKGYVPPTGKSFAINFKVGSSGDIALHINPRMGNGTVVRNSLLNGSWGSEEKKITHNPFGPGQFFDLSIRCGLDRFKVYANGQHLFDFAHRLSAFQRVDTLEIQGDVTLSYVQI

[28] = target: Galectin-7 (Homo sapiens, UniProt P47929); assay: Inhibition of human galectin-7 by competitive fluorescence polarization assay
Sequence of Galectin-7 (P47929 whole entry): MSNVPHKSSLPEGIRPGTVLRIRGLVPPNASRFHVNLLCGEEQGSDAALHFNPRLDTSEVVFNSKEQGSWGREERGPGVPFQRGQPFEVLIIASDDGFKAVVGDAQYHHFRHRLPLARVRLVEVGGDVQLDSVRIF

[29] = target: T2, Galectin-1; assay: Binding affinity to CM3 chip-immobilized full-length mouse galectin-1 assessed as dissociation constant by SPR analysis
[30] = target: T7, Galectin-3 (Mus musculus, UniProt P16110); assay: Binding affinity to CM3 chip-immobilized full-length mouse galectin-3 assessed as dissociation constant by SPR analysis
T7 sequence (P16110 whole entry): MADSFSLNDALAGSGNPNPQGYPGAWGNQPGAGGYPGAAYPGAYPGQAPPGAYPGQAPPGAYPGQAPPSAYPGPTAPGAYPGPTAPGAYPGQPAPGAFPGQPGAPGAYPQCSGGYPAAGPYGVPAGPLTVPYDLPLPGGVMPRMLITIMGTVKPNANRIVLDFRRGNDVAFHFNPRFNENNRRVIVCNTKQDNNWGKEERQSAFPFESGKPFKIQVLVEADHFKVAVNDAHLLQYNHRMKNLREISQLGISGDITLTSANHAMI

[31] = tested on: A549; assay: Cytotoxicity against human A549 cells assessed as reduction in cell viability at >90 uM by MTT assay relative to control; format: functional
[32] = target: T6, Galectin-4; assay: Inhibition of C-terminal human galectin-4 by competitive fluorescence polarization assay
[33] = target: T1, Galectin-1; assay: Binding affinity to CM3 chip-immobilized full-length human galectin-1 assessed as dissociation constant by SPR analysis
[34] = target: T7, Galectin-3; assay: Binding affinity to mouse galectin-3 assessed as dissociation constant by fluorescein probe based fluorescence polarization assay
[35] = target: T2, Galectin-1; assay: Binding affinity to mouse galectin-1 assessed as dissociation constant by competitive fluorescence polarization assay
[36] = target: T1, Galectin-1; assay: Binding affinity to human galectin-1 assessed as dissociation constant by fluorescence polarization assay

Nc1csc(-c2cn([C@@H]3[C@@H](O)[C@@H](Sc4cc(Cl)c(F)c(Cl)c4)O[C@H](CO)[C@@H]3O)nn2)n1
logD at 1 h [1]: 2.5 | Kd [2]: 620 nM | Papp B→A at 1.5 h, 10 µM [3]: 42 ×10⁻⁶ cm/s | Papp A→B at 1.5 h, 10 µM [4]: 3.1 ×10⁻⁶ cm/s | efflux ratio at 1.5 h, 10 µM [5]: 14

COc1nc(-c2cn([C@@H]3[C@@H](O)[C@@H](Sc4cc(Cl)c(F)c(Cl)c4)O[C@H](CO)[C@@H]3O)nn2)cs1
Kd [2]: 1580 nM | Papp B→A at 1.5 h, 10 µM [3]: 61 ×10⁻⁶ cm/s | Papp A→B at 1.5 h, 10 µM [4]: 12 ×10⁻⁶ cm/s | efflux ratio at 1.5 h, 10 µM [5]: 5

CO[C@@H]1[C@@H](n2cc(-c3csc(N)n3)nn2)[C@@H](O)[C@@H](CO)O[C@@H]1Sc1ccc(Cl)c(Cl)c1
hepatocyte CLint at 2 µM [6]: < 1.5 µL/min/1e6 cells | fraction unbound at 5 h, 1 µM [7]: 0.032 | logD at 1 h [1]: 2.9 | Kd [8]: 99 nM | Kd [2]: 112 nM | Papp B→A at 1.5 h, 10 µM [3]: 38 ×10⁻⁶ cm/s | Papp A→B at 1.5 h, 10 µM [4]: 3.8 ×10⁻⁶ cm/s | efflux ratio at 1.5 h, 10 µM [5]: 10 | hepatocyte CLint at 2 µM [9]: < 1.5 µL/min/1e6 cells

CO[C@@H]1[C@@H](n2cc(-c3csc(O)n3)nn2)[C@@H](O)[C@@H](CO)O[C@@H]1Sc1ccc(Cl)c(Cl)c1
hepatocyte CLint at 2 µM [6]: < 1.5 µL/min/1e6 cells | fraction unbound at 5 h, 1 µM [7]: 0.005 | Kd [10]: 6000 nM | Activity [11]: Active | Cmax [12]: 19500 ng/mL | Kd [13]: 18600 nM | AUC(0-inf) [14]: 148 µg·h/mL | Kd [15]: 17500 nM | bioavailability [16]: > 99.9% | fraction unbound at 5 h, 1 µM [17]: 0.007 | IC50 [18]: > 8000 nM | Vd [19]: 0.4 L/kg | Tmax [20]: 2 h | Kd [21]: 80600 nM | clearance [22]: 3.7 mL/min/kg | Kd [23]: 20500 nM | Kd [24]: 92400 nM | IC50 [25]: 850 nM | logD at 1 h [1]: 3.2 | inhibition [26]: Active | Kd [8]: 72 nM | Kd [27]: 15000 nM | Kd [28]: 92700 nM | Papp B→A at 1.5 h, 10 µM [3]: 48 ×10⁻⁶ cm/s | Kd [29]: 90 nM | Kd [30]: 8200 nM | Papp A→B at 1.5 h, 10 µM [4]: 4 ×10⁻⁶ cm/s | Activity [31]: 48% | Kd [32]: 460 nM | Kd [33]: 80 nM | Kd [34]: 4200 nM | hepatocyte CLint at 2 µM [9]: < 1.5 µL/min/1e6 cells

OC[C@H]1O[C@H](Sc2cc(Cl)c(F)c(Cl)c2)[C@H](O)[C@@H](n2cc(-c3csc(O)n3)nn2)[C@H]1O
logD at 1 h [1]: 2.8 | Kd [2]: 80 nM | Papp B→A at 1.5 h, 10 µM [3]: 35 ×10⁻⁶ cm/s | Papp A→B at 1.5 h, 10 µM [4]: 0.3 ×10⁻⁶ cm/s | efflux ratio at 1.5 h, 10 µM [5]: 117

OC[C@H]1O[C@H](Sc2cc(Cl)c(F)c(Cl)c2)[C@H](O)[C@@H](n2cc(-c3nccs3)nn2)[C@H]1O
efflux ratio at 1.5 h, 10 µM [5]: 2.8

O=C(N[C@H]1[C@@H](O)[C@@H](CO)O[C@@H](S[C@@H]2O[C@H](CO)[C@H](O)[C@H](n3cc(-c4csc(O)n4)nn3)[C@H]2O)[C@@H]1O)c1ccc2c(c1)C(=O)OC21c2ccc(O)cc2Oc2cc(O)ccc21
Kd [35]: 29 nM | Kd [36]: 20 nM

OC[C@H]1O[C@H](Sc2ccc(Cl)c(Cl)c2)[C@H](O)[C@@H](n2cc(-c3csc(O)n3)nn2)[C@H]1O
Kd [2]: 337 nM | Papp B→A at 1.5 h, 10 µM [3]: 35 ×10⁻⁶ cm/s | Papp A→B at 1.5 h, 10 µM [4]: < 1.5 ×10⁻⁶ cm/s | efflux ratio at 1.5 h, 10 µM [5]: > 23
